Data: patent US5807745A, “Method of inhibiting PADGEM-mediated or ELAM-1-mediated leukocyte adhesion using an inhibitor comprising a Le^x core component” (New England Medical Center Hospitals, Inc., priority 1995, dated 1998)
≈ marks a conversion by molar mass, not a printed value.

Experiments:
[1] = tested on: Mel-14; settings: literature report; cited from earlier work
[2] = tested on: glycoprotein IIb-IIIa dependent platelet aggregation; assay: ADP-induced platelet aggregation; assay type: cell-based, human; settings: specificity control
Excerpt: To address the possibility of a nonspecific effect of LNF III on cell-cell interaction involving platelets, the effect of LNF III on ADP-induced platelet aggregation was examined.

[3] = tested on: adherence of activated platelets to neutrophils (PADGEM-mediated); assay: Phase-contrast cell adhesion assay: thrombin-activated platelets with neutrophils; assay type: cell-based, human; settings: LNF isomers, FIG. 6
Protocol: Platelets were isolated by gel filtration from fresh anticoagulated blood obtained from normal human donors (Hsu-Lin et al., J. Biol. Chem., 259: 9121-9126 (1984)). Activated platelets were prepared by incubating cells without stirring for 20 minutes at 22° C. with thrombin at a final concentration of 0.25 U/ml. Fresh platelets were used in cell adhesion assays within 30 minutes of preparation.
Neutrophils were prepared by the method of English and Anderson (J. Immunol. Method, 5: 249-252 (1974)). The neutrophil preparations were greater than 95% pure by light microscopy. Monocytes were prepared by washing the mono-nuclear leukocyte fraction twice with human serum-5 mM EDTA and incubating the cells in RPMI 1640--10% fetal calf serum in sterile […] dishes for 2 hours at 37° C. The dishes were washed three times with PBS at 37° C. to remove nonadherent cells. PBS at 0° C. was added, and the cells were incubated at 4° C. for 1 hour. Adherent cells were gently detached with a rubber policeman, washed in PBS, and resuspended in RPMI 1640--1% fetal calf serum. Lymphocytes were obtained by washing the nonadherent cells with PBS and resuspending these cells in RPMI 1640--1% fetal calf serum. The purity of these preparations was established to be greater than 90% by light microscopy using Wright esterase and nonspecific esterase stains.
Twenty microliters of platelet suspension (2×10^8 /ml) was mixed with 20 μl of cell suspension (2×10^6 /ml) and incubated for 20 minutes at 22° C. in a microfuge tube. An aliquot of the cell suspension was then in a Neubauer chamber and evaluated by light microscropy using an Olympus model BH-2 microscope. Three samples from each assay were evaluated by counting 200 cells and scoring the percentage of cells with two or more adherent platelets (Jungi et al., Blood 67: 629-636 (1986)). Antibody inhibition studies were performed by preincubating cells (20 μl; 3×10^6 /ml) with 20 μl of antibody solution for 20 minutes at 22° C. Subsequently, 20 μl of platelet suspension was added, and the mixture was incubated for 20 minutes at 22° C. Samples were analyzed as above.
To identify the PADGEM recognition site on leukocytes that mediates the binding of activated platelets, monoclonal antibodies directed at various antigens on the surface of monocytes and neutrophils were tested for their ability to inhibit the interaction of these cells with activated platelets, using the phase-contrast cell adhesion assay described in Example 2 (FIG. 1 and FIG. 2). The antibodies were raised against various leukocytes and myeloid cell lines and are directed at leukocyte antigens. […] The percentage of cells displaying two or more adherent platelets was determined as described in Example 2.

[4] = tested on: cell viability; assay: Cell viability by trypan blue exclusion; assay type: cell-based; settings: trypan blue exclusion method
[5] = tested on: binding of HL60 cells to COS/PADGEM cells; assay: COS cell-PADGEM adhesion assay with labelled HL60 cells; assay type: cell-based, human
Protocol: COS cells (1×10^5) were transfected with 40 μg of the resulting PADGEM expression vector by calcium phosphate precipitation. Coverslips (12×12 mm) were added to each culture. After 48 hours of growth in DMEM--10% fetal calf serum, the COS cells were confluent.
HL60 cells (1×10^7), maintained in culture, were washed and resuspended in 0.5 ml of serum-free RPMI 1640. The cells were labeled with 270 μCi of ^111 In oxine (Callow et al., Arch. Surg., 117: 1447-1455 (1982)) and 10 μg of bis-carboxyethyl-carboxyfluorescein (Kolber et al., J. Immunol. Meth., 108: 255-264 (1988)) by incubation at 37° C. for 30 minutes. After washing with RPMI 1640--1% bovine serum albumin, the cells (1×10^6) were incubated with the coverslips containing confluent COS cell transfectants, in the presence or absence of LNF isomers, for 20 minutes at 37° C. The coverslips were washed with RPMI 1640, and duplicate coverslips were assayed for ^111 In activity. Alternatively, samples were evaluated for HL60 cell adherence by fluorescence and phase-contrast microscopy using a Zeiss Axioscope microscope in a blind assay. Inhibition of the binding of COS/PADGEM cells to U937 cells by the antibody 80H5 was performed in experiments identical to the procedure described above.
The results of a COS cell-PADGEM adhesion assay, in which the binding of ^111 In and bis-carboxyethyl-carboxyfluorescein-lableled HL60 cells to COS/PADGEM cells was monitored by assaying ^111 In activity (Example 2), are shown in FIG. 7. […] The inhibitory effect of LNF II was more apparent when the LNF to PADGEM ratio was high. […] It is possible that minor contamination of the LNF II preparation with LNF III can account for the inhibitory activity observed.
The inhibitory effects of LNF I, II, and III on the interaction of HL60 cells and COS/PADGEM was also studied morphologically in a blind assay. In these experiments, the binding of fluorescently labeled HL60 cells to COS/PADGEM cells was scored (Example 2).

In the case of `O=P(O)(O)OC[C@H]1OC(O)[C@@H](O)[C@@H](O)[C@@H]1O` (stereo partly shown) [mannose 6-phosphate], the “inhibition of Mel-14-mediated lymphocyte-endothelial cell interaction” value [1] is given as “inhibit”.

With `CC(=O)N[C@H]1[C@H](O[C@H]2[C@@H](O)[C@@H](CO)O[C@@H](O[C@H]3[C@H](O)[C@@H](O)C(O)O[C@@H]3CO)[C@@H]2O)O[C@H](CO)[C@@H](O[C@@H]2O[C@H](CO)[C@H](O)[C@H](O)[C@H]2O)[C@@H]1O[C@@H]1O[C@@H](C)[C@@H](O)[C@@H](O)[C@@H]1O` (stereo partly shown) [LNF III, Galβ1-4(Fucα1-3)GlcNAcβ1-3Galβ1-4Glc] the “effect on ADP-induced platelet aggregation” value [2] was “equivalent in the presence or absence of LNF III”, the IC50 ([3]; Homo sapiens, read-out: half-maximal inhibition of the adherence of activated platelets to neutrophils) was roughly 50 µg/mL (≈ 58.6 µM) and the “inhibitory activity on adherence of activated platelets to neutrophils” value ([3]; direct cell adhesion assay) was “effective inhibitor”. The cell viability [4] was “did not alter cell viability”, the “inhibition of binding of radiolabeled HL60 cells to COS/PADGEM cells” value ([5]; 111In activity, FIG. 7) was “significantly inhibited” and the “inhibition of binding of fluorescently labeled HL60 cells to COS/PADGEM cells” value ([5]; scored morphologically in a blind assay) was “significant inhibitory activity”.
